Reference: paper PMC9898036, “VIP152 is a selective CDK9 inhibitor with pre-clinical in vitro and in vivo efficacy in chronic lymphocytic leukemia” (Leukemia, 2022)
Like-named read-outs stand apart in the source and are kept apart here.

Columns and labels:
Test in all cases: DiscoverX KINOMEscan kinase profiling (468 assays)
Format in all cases: binding
human kinome [1] = biological target: human kinome (Homo sapiens, UniProt Q9UK32); conditions: compound concentration 1000 nM, read-out: Percent Control
Chain of human kinome (Homo sapiens, UniProt Q9UK32) (Q9UK32 whole entry): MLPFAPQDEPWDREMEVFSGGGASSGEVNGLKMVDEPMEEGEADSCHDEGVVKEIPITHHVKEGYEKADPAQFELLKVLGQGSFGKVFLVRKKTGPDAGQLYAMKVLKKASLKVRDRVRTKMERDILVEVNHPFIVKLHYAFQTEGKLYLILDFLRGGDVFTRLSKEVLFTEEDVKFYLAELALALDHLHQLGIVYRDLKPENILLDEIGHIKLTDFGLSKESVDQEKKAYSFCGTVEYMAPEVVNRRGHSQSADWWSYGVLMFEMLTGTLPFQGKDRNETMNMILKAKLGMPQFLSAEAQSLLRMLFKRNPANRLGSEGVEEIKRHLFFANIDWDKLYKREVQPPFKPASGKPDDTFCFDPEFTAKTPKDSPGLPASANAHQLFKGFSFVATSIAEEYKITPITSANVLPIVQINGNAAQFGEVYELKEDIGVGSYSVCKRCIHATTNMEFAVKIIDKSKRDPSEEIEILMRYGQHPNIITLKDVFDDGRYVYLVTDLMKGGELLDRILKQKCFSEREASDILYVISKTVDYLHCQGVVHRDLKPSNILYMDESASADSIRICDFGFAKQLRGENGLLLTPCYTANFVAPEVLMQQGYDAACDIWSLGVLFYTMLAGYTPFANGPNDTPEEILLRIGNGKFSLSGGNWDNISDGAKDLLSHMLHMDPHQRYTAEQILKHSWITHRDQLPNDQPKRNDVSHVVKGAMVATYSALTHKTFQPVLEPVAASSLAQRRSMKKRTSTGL
Method in brief: (§1)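 DNA-tagged kinases competed for immobilized biotinylated ligands on streptavidin magnetic beads, with bound kinase quantified by qPCR. VIP152 in DMSO was tested against a DMSO control.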

human kinome [2] = biological target: human kinome (Homo sapiens, UniProt P54762); conditions: EPHB1; 100 nM; read-out: Percent Control
Method in brief: as §1

human kinome [3] = biological target: human kinome (Homo sapiens, UniProt P16234); conditions: read-out: Percent Control
Chain of human kinome (Homo sapiens, UniProt P16234) (P16234 24-1089): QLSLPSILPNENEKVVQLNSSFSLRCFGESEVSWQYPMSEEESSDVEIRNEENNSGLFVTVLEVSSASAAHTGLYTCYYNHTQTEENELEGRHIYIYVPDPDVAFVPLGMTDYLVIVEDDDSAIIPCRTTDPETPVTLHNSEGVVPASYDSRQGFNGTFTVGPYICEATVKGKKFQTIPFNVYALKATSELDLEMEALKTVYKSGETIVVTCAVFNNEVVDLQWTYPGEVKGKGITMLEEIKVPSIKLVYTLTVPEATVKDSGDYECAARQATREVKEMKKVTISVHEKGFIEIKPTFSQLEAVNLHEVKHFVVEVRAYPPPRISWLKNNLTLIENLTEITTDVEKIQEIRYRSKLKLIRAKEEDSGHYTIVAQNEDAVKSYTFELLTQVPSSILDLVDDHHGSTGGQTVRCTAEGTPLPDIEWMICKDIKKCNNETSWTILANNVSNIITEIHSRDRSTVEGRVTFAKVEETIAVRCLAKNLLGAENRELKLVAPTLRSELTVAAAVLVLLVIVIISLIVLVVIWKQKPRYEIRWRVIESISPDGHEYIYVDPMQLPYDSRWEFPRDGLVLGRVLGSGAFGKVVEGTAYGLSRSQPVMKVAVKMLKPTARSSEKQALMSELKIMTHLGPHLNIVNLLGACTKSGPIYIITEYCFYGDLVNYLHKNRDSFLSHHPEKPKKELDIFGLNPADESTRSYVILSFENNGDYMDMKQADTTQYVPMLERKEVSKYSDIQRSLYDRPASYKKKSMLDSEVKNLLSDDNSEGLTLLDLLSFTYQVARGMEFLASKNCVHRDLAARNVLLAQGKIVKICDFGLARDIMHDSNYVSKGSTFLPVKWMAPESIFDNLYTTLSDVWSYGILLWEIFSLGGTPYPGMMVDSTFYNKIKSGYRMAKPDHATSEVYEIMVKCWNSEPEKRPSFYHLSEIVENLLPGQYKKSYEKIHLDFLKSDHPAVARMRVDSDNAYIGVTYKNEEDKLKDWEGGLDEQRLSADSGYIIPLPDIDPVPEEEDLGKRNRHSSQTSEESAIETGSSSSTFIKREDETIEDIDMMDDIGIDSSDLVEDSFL
Method in brief: as §1

human kinome [4] = biological target: human kinome (Homo sapiens, UniProt P49760); conditions: CLK2; 100 nM; read-out: Percent Control
Method in brief: as §1

human kinome [5] = biological target: human kinome (Homo sapiens, UniProt P31751); conditions: AKT2; 100 nM; read-out: Percent Control
Method in brief: as §1

human kinome [6] = biological target: human kinome (Homo sapiens, UniProt P00533, L861Q); conditions: EGFR(L861Q); 100 nM; read-out: Percent Control
Method in brief: as §1

human kinome [7] = biological target: human kinome (Homo sapiens, UniProt Q9UM73, L1196M); conditions: ALK(L1196M); 100 nM; read-out: Percent Control
Method in brief: as §1

human kinome [8] = biological target: human kinome (Homo sapiens, UniProt Q13177); conditions: read-out: Percent Control
Chain of human kinome (Homo sapiens, UniProt Q13177) (Q13177 whole entry): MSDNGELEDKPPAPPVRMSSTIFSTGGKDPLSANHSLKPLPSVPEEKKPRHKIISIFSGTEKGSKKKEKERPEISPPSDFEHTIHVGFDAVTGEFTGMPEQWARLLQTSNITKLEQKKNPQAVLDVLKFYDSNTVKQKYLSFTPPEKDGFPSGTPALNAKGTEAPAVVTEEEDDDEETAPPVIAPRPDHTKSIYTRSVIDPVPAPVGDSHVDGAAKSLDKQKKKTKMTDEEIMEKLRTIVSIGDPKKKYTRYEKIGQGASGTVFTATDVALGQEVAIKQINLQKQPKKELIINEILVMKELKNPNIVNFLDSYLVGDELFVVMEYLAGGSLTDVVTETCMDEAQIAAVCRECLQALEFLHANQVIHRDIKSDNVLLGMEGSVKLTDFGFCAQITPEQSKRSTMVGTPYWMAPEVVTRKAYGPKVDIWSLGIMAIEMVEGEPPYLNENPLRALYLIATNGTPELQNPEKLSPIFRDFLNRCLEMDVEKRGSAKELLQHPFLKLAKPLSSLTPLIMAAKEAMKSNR
Method in brief: as §1

human kinome [9] = biological target: human kinome (Homo sapiens, UniProt O94768); conditions: DRAK2 (Entrez STK17B); 100 nM; read-out: Percent Control
Method in brief: as §1

human kinome [10] = biological target: human kinome (Homo sapiens, UniProt P10721, V559D/V654A); conditions: KIT(V559D,V654A); 100 nM; read-out: Percent Control
Method in brief: as §1

human kinome [11] = biological target: human kinome (Homo sapiens, UniProt Q9Y4K4); conditions: MAP4K5; 100 nM; read-out: Percent Control
Method in brief: as §1

human kinome [12] = biological target: human kinome (Homo sapiens, UniProt Q15831); conditions: LKB1 (Entrez STK11); 100 nM; read-out: Percent Control
Method in brief: as §1

human kinome [13] = biological target: human kinome (Homo sapiens, UniProt P08631); conditions: HCK; 100 nM; read-out: Percent Control
Method in brief: as §1

human kinome [14] = biological target: human kinome (Homo sapiens, UniProt O43283); conditions: LZK (Entrez MAP3K13); 100 nM; read-out: Percent Control
Method in brief: as §1

human kinome [15] = biological target: human kinome (Homo sapiens, UniProt P00533); conditions: EGFR; 100 nM; read-out: Percent Control
Method in brief: as §1

human kinome [16] = biological target: human kinome (Homo sapiens, UniProt P07332); conditions: FES; 100 nM; read-out: Percent Control
Method in brief: as §1

human kinome [17] = biological target: human kinome (Homo sapiens, UniProt P53667); conditions: LIMK1; 100 nM; read-out: Percent Control
Method in brief: as §1

human kinome [18] = biological target: human kinome (Homo sapiens, UniProt Q5S007); conditions: LRRK2; 100 nM; read-out: Percent Control
Method in brief: as §1

human kinome [19] = biological target: human kinome (Homo sapiens, UniProt Q14164); conditions: IKK-epsilon (Entrez IKBKE); 100 nM; read-out: Percent Control
Method in brief: as §1

human kinome [20] = biological target: human kinome (Homo sapiens, UniProt Q86V86); conditions: read-out: Percent Control
Method in brief: as §1

human kinome [21] = biological target: human kinome (Homo sapiens, UniProt Q02750); conditions: MEK1 (Entrez MAP2K1); 100 nM; read-out: Percent Control
Method in brief: as §1

human kinome [22] = biological target: human kinome (Homo sapiens, UniProt P54760); conditions: EPHB4; 100 nM; read-out: Percent Control
Method in brief: as §1

human kinome [23] = biological target: human kinome (Homo sapiens, UniProt P53779); conditions: JNK3 (Entrez MAPK10); 100 nM; read-out: Percent Control
Method in brief: as §1

human kinome [24] = biological target: human kinome (Homo sapiens, UniProt Q16539); conditions: read-out: Percent Control
Chain of human kinome (Homo sapiens, UniProt Q16539) (Q16539 whole entry): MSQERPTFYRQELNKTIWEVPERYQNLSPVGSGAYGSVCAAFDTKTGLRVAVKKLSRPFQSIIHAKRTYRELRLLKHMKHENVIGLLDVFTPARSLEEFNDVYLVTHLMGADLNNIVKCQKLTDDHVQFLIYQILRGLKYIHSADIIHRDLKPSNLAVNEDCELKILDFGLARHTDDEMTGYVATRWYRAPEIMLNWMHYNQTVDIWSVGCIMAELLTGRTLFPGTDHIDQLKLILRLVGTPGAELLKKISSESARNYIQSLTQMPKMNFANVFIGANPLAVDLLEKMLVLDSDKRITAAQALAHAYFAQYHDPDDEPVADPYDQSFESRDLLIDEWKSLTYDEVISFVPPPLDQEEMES
Method in brief: as §1

human kinome [25] = biological target: human kinome (Homo sapiens, UniProt Q06187); conditions: BTK; 100 nM; read-out: Percent Control
Method in brief: as §1

human kinome [26] = biological target: human kinome (Homo sapiens, UniProt Q8TDC3); conditions: BRSK1; 100 nM; read-out: Percent Control
Chain of human kinome (Homo sapiens, UniProt Q8TDC3) (Q8TDC3 whole entry): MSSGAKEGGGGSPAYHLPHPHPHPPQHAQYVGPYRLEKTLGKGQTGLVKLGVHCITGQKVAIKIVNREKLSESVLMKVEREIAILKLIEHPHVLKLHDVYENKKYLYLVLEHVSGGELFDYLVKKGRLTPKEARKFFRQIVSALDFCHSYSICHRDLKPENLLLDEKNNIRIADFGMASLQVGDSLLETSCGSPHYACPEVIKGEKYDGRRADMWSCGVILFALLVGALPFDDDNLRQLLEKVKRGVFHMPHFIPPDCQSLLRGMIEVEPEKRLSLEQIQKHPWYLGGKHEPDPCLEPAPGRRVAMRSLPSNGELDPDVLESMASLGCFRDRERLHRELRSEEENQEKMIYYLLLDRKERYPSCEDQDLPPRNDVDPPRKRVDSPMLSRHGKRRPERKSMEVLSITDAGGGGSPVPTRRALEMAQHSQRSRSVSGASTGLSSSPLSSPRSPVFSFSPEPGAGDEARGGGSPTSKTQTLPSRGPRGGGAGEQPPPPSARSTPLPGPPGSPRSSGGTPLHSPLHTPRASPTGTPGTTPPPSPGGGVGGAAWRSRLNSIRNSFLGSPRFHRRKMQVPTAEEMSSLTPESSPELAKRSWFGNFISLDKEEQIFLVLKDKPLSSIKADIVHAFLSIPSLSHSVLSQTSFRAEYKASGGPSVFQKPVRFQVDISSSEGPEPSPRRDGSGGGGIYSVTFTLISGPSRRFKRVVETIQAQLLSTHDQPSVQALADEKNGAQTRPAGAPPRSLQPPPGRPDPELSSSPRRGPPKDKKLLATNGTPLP
Method in brief: as §1

human kinome [27] = biological target: human kinome (Homo sapiens, UniProt Q6ZWH5); conditions: read-out: Percent Control
Chain of human kinome (Homo sapiens, UniProt Q6ZWH5) (Q6ZWH5 whole entry): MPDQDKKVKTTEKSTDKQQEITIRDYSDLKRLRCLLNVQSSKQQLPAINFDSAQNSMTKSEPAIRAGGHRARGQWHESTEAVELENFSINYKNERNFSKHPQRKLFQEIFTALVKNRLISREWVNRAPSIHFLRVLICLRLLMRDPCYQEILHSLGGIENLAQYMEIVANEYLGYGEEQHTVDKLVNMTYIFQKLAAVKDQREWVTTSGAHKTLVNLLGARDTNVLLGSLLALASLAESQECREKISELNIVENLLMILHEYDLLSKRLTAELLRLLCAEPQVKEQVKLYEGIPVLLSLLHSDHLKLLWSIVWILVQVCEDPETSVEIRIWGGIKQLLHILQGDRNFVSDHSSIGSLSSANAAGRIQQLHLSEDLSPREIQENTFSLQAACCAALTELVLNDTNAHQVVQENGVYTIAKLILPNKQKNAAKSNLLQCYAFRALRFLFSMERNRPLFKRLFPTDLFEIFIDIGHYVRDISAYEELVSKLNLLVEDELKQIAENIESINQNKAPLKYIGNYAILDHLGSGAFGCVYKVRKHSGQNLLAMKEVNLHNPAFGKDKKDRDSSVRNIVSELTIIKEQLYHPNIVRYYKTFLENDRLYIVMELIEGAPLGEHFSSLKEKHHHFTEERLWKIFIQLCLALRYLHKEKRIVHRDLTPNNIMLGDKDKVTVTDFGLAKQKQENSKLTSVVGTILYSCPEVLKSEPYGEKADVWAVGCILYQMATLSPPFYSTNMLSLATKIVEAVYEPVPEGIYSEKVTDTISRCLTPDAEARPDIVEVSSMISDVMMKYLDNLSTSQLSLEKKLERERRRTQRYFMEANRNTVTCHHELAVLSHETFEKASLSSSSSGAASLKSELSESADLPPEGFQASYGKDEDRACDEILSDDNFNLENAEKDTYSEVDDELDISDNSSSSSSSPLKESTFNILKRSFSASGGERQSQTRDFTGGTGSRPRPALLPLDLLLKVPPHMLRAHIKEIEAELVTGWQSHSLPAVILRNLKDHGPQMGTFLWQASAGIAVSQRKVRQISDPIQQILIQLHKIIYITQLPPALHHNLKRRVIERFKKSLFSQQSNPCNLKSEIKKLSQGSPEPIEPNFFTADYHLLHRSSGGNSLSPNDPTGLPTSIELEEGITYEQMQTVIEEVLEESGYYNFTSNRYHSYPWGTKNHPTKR
Method in brief: as §1

human kinome [28] = biological target: human kinome (Homo sapiens, UniProt P52333); conditions: JAK3(JH1domain-catalytic); 100 nM; read-out: Percent Control
Method in brief: as §1

human kinome [29] = biological target: human kinome (Homo sapiens, UniProt P27448); conditions: MARK3; 100 nM; read-out: Percent Control
Method in brief: as §1

human kinome [30] = biological target: human kinome (Homo sapiens, UniProt Q16832); conditions: DDR2; 100 nM; read-out: Percent Control
Method in brief: as §1

**Q.** For `COc1cc(F)ccc1-c1cc(Nc2cc(CS(C)(=N)=O)ccn2)ncc1F` (stereo not drawn) [VIP152], which remaining binding at 1 µM (human kinome [1]; kinase RSK4(Kin.Dom.1-N-terminal) (Entrez RPS6KA6)) is on record?
**A.** The remaining binding at 1 µM was 94%.

**Q.** What about the remaining binding at 1 µM (human kinome [1]; kinase RSK4(Kin.Dom.2-C-terminal) (Entrez RPS6KA6)) of the same molecule?
**A.** The remaining binding at 1 µM was 89%.

**Q.** What about the remaining binding at 0.1 µM (human kinome [2]) of the same molecule?
**A.** Its remaining binding at 0.1 µM is 100%.

**Q.** And the remaining binding at 0.1 µM (human kinome [3]; PDGFRA, 100 nM)?
**A.** Its remaining binding at 0.1 µM is 100%.

**Q.** What about the remaining binding at 1 µM (human kinome [3]; kinase PDGFRA (Entrez PDGFRA), compound concentration 1000 nM) of the same molecule?
**A.** Its remaining binding at 1 µM is 80%.

**Q.** What about the remaining binding at 0.1 µM (human kinome [4]) of the same molecule?
**A.** Its remaining binding at 0.1 µM is 61%.

**Q.** And the remaining binding at 0.1 µM (human kinome [5])?
**A.** The remaining binding at 0.1 µM was 100%.

**Q.** And the remaining binding at 0.1 µM (human kinome [6])?
**A.** Its remaining binding at 0.1 µM is 100%.

**Q.** And the remaining binding at 0.1 µM (human kinome [7])?
**A.** The remaining binding at 0.1 µM was 100%.

**Q.** And the remaining binding at 0.1 µM (human kinome [8]; PAK2, 100 nM)?
**A.** Its remaining binding at 0.1 µM is 81%.

**Q.** What about the remaining binding at 1 µM (human kinome [8]; kinase PAK2 (Entrez PAK2), compound concentration 1000 nM) of the same molecule?
**A.** Its remaining binding at 1 µM is 100%.

**Q.** What about the remaining binding at 0.1 µM (human kinome [9]) of the same molecule?
**A.** The remaining binding at 0.1 µM was 100%.

**Q.** And the remaining binding at 0.1 µM (human kinome [10])?
**A.** Its remaining binding at 0.1 µM is 100%.

**Q.** And the remaining binding at 0.1 µM (human kinome [11])?
**A.** The remaining binding at 0.1 µM was 94%.

**Q.** And the remaining binding at 0.1 µM (human kinome [12])?
**A.** Its remaining binding at 0.1 µM is 100%.

**Q.** And the remaining binding at 0.1 µM (human kinome [13])?
**A.** The remaining binding at 0.1 µM was 97%.

**Q.** And the remaining binding at 0.1 µM (human kinome [14])?
**A.** The remaining binding at 0.1 µM was 100%.

**Q.** And the remaining binding at 0.1 µM (human kinome [15])?
**A.** Its remaining binding at 0.1 µM is 100%.

**Q.** What about the remaining binding at 0.1 µM (human kinome [16]) of the same molecule?
**A.** The remaining binding at 0.1 µM was 100%.

**Q.** What about the remaining binding at 0.1 µM (human kinome [17]) of the same molecule?
**A.** Its remaining binding at 0.1 µM is 100%.

**Q.** And the remaining binding at 0.1 µM (human kinome [18])?
**A.** Its remaining binding at 0.1 µM is 100%.

**Q.** And the remaining binding at 0.1 µM (human kinome [19])?
**A.** Its remaining binding at 0.1 µM is 100%.

**Q.** What about the remaining binding at 0.1 µM (human kinome [20]; PIM3, 100 nM) of the same molecule?
**A.** The remaining binding at 0.1 µM was 100%.

**Q.** What about the remaining binding at 1 µM (human kinome [20]; kinase PIM3 (Entrez PIM3), compound concentration 1000 nM) of the same molecule?
**A.** Its remaining binding at 1 µM is 100%.

**Q.** And the remaining binding at 0.1 µM (human kinome [21])?
**A.** The remaining binding at 0.1 µM was 100%.

**Q.** What about the remaining binding at 0.1 µM (human kinome [22]) of the same molecule?
**A.** Its remaining binding at 0.1 µM is 100%.

**Q.** And the remaining binding at 0.1 µM (human kinome [23])?
**A.** The remaining binding at 0.1 µM was 94%.

**Q.** And the remaining binding at 1 µM (human kinome [24]; kinase p38-alpha (Entrez MAPK14), compound concentration 1000 nM)?
**A.** The remaining binding at 1 µM was 100%.

**Q.** What about the remaining binding at 0.1 µM (human kinome [24]; p38-alpha (Entrez MAPK14), 100 nM) of the same molecule?
**A.** The remaining binding at 0.1 µM was 100%.

**Q.** What about the remaining binding at 0.1 µM (human kinome [25]) of the same molecule?
**A.** The remaining binding at 0.1 µM was 100%.

**Q.** And the remaining binding at 0.1 µM (human kinome [26])?
**A.** The remaining binding at 0.1 µM was 100%.

**Q.** And the remaining binding at 0.1 µM (human kinome [27]; NEK10, 100 nM)?
**A.** The remaining binding at 0.1 µM was 97%.

**Q.** What about the remaining binding at 1 µM (human kinome [27]; kinase NEK10 (Entrez NEK10), compound concentration 1000 nM) of the same molecule?
**A.** Its remaining binding at 1 µM is 77%.

**Q.** And the remaining binding at 0.1 µM (human kinome [28])?
**A.** Its remaining binding at 0.1 µM is 100%.

**Q.** And the remaining binding at 0.1 µM (human kinome [29])?
**A.** The remaining binding at 0.1 µM was 99%.

**Q.** What about the remaining binding at 0.1 µM (human kinome [30]) of the same molecule?
**A.** The remaining binding at 0.1 µM was 79%.
